Results on 43 sequences are retold here after the supplement of paper PMC11208160.

The data set can be described thus: recombinant barcode read abundance after kanamycin selection (control-corrected) (log10(CPM+1)); higher = more efficient recombination; sequences stand for … in AGTGCAGAGAAAATCGGCCAGTTTTCTCTGCCTGCAGTCCGCATGCCGT…ATTTATGCAGCGGACTGCCTTTCTCCCAAAGTGATAAACCGGACAGTATCATGGACCGGTTTTCCCGGTAATCCGTATTTGCAAGGTTGGTTTCACT; site = the 11-nt target. The gist of the method:
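Recombination efficiency in this pooled E. coli screen uses counts per million of barcodes at recombinant junctions, averaged and corrected against the control. The reported form is log10(CPM+1). Two replicates were plated on chloramphenicol/ampicillin LB agar as control and two on chloramphenicol/ampicillin/kanamycin with 0.1 mM IPTG.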
For the sequence “CGCGCCCCTTGGGTTCTAACCTGTTGCGGTA [CGCGCCCCTCC_LTGcore_CT_RTGcore_TA] (site CGCGCCCCTCC) (LTG core: CT, RTG core: TA)”, the “recombinant barcode read abundance (log10)” value is 0.602.
In the case of “CGCGCCCGATGGGTTCTAACCTGTTGCGGTC [CGCGCCCCTCC_LTGcore_GA_RTGcore_GA] (site CGCGCCCCTCC) (LTG core: GA, RTG core: GA)”, the “recombinant barcode read abundance (log10)” value amounted to 0.158.
Take “CGCGCCCGGTGGGTTCTAACCTGTTGCGGAG [CGCGCCCCTCC_LTGcore_GG_RTGcore_CT] (site CGCGCCCCTCC) (LTG core: GG, RTG core: CT)”: the “recombinant barcode read abundance (log10)” value is 0.557.
With “CGCGCCCTATGGGTTCTAACCTGTTGCGGAG [CGCGCCCCTCC_LTGcore_TA_RTGcore_CT] (site CGCGCCCCTCC) (LTG core: TA, RTG core: CT)” the figure was 0.334.
For the sequence “CGCGCCCTTTGGGTTCTAACCTGTTGCGGAG [CGCGCCCCTCC_LTGcore_TT_RTGcore_CT] (site CGCGCCCCTCC) (LTG core: TT, RTG core: CT)”, the “recombinant barcode read abundance (log10)” value came out at 0.127.
For the sequence “CGGTCCCACTGGGTTCTAACCTGTTGCCAGT [CGGTCCCCTTG_LTGcore_AC_RTGcore_AC] (site CGGTCCCCTTG) (LTG core: AC, RTG core: AC)”, the “recombinant barcode read abundance (log10)” value was 0.19.
As for “CGGTCCCAGTGGGTTCTAACCTGTTGCCAAG [CGGTCCCCTTG_LTGcore_AG_RTGcore_CT] (site CGGTCCCCTTG) (LTG core: AG, RTG core: CT)”, the “recombinant barcode read abundance (log10)” value was found to be 0.0476.
As for “CGGTCCCATTGGGTTCTAACCTGTTGCCAAG [CGGTCCCCTTG_LTGcore_AT_RTGcore_CT] (site CGGTCCCCTTG) (LTG core: AT, RTG core: CT)”, the “recombinant barcode read abundance (log10)” value worked out at 1.07.
“CGGTCCCCCTGGGTTCTAACCTGTTGCCAAG [CGGTCCCCTTG_LTGcore_CC_RTGcore_CT] (site CGGTCCCCTTG) (LTG core: CC, RTG core: CT)”: the “recombinant barcode read abundance (log10)” value came to 0.189.
In the case of “CGGTCCCCTTGGGTTCTAACCTGTTGCCATG [CGGTCCCCTTG_LTGcore_CT_RTGcore_CA] (site CGGTCCCCTTG) (LTG core: CT, RTG core: CA)” it was 1.6; in that of “CGGTCCCGTTGGGTTCTAACCTGTTGCCAAC [CGGTCCCCTTG_LTGcore_GT_RTGcore_GT] (site CGGTCCCCTTG) (LTG core: GT, RTG core: GT)”, 0.229.
In the case of “CGGTCCCTCTGGGTTCTAACCTGTTGCCAAG [CGGTCCCCTTG_LTGcore_TC_RTGcore_CT] (site CGGTCCCCTTG) (LTG core: TC, RTG core: CT)” it was 0.355.
With “CGGTCCCTCTGGGTTCTAACCTGTTGCCAGA [CGGTCCCCTTG_LTGcore_TC_RTGcore_TC] (site CGGTCCCCTTG) (LTG core: TC, RTG core: TC)” the figure was 0.174.
With “CGGTCCCTGTGGGTTCTAACCTGTTGCCACA [CGGTCCCCTTG_LTGcore_TG_RTGcore_TG] (site CGGTCCCCTTG) (LTG core: TG, RTG core: TG)”, the “recombinant barcode read abundance (log10)” value was found to be 0.175.
With “CGGTCCCTTTGGGTTCTAACCTGTTGCCAAG [CGGTCCCCTTG_LTGcore_TT_RTGcore_CT] (site CGGTCCCCTTG) (LTG core: TT, RTG core: CT)” the figure was 0.0132; with “GAGCCCACTTGGGTTCTAACCTGTTGCCTAT [GAGCCCACTAG_LTGcore_CT_RTGcore_AT] (site GAGCCCACTAG) (LTG core: CT, RTG core: AT)”, 0.41.
On to “GAGCCCAGCTGGGTTCTAACCTGTTGCCTGC [GAGCCCACTAG_LTGcore_GC_RTGcore_GC] (site GAGCCCACTAG) (LTG core: GC, RTG core: GC)”, for which the “recombinant barcode read abundance (log10)” value amounted to 0.0674.
With “GAGCCCAGGTGGGTTCTAACCTGTTGCCTAG [GAGCCCACTAG_LTGcore_GG_RTGcore_CT] (site GAGCCCACTAG) (LTG core: GG, RTG core: CT)” the figure was 0.181; with “GAGCCCAGTTGGGTTCTAACCTGTTGCCTAG [GAGCCCACTAG_LTGcore_GT_RTGcore_CT] (site GAGCCCACTAG) (LTG core: GT, RTG core: CT)”, 0.0941; with “GAGCCCATATGGGTTCTAACCTGTTGCCTTA [GAGCCCACTAG_LTGcore_TA_RTGcore_TA] (site GAGCCCACTAG) (LTG core: TA, RTG core: TA)”, 0.338.
With “GAGCCCATCTGGGTTCTAACCTGTTGCCTAG [GAGCCCACTAG_LTGcore_TC_RTGcore_CT] (site GAGCCCACTAG) (LTG core: TC, RTG core: CT)” the figure was 0.102; with “GAGCCCATTTGGGTTCTAACCTGTTGCCTAA [GAGCCCACTAG_LTGcore_TT_RTGcore_TT] (site GAGCCCACTAG) (LTG core: TT, RTG core: TT)”, 0.178; with “GAGGCCTCCTGGGTTCTAACCTGTTGCCAGG [GAGGCCTCTTG_LTGcore_CC_RTGcore_CC] (site GAGGCCTCTTG) (LTG core: CC, RTG core: CC)”, 0.215.
With “GAGGCCTCTTGGGTTCTAACCTGTTGCCAAA [GAGGCCTCTTG_LTGcore_CT_RTGcore_TT] (site GAGGCCTCTTG) (LTG core: CT, RTG core: TT)” the figure was 0.822; with “GAGGCCTCTTGGGTTCTAACCTGTTGCCAAT [GAGGCCTCTTG_LTGcore_CT_RTGcore_AT] (site GAGGCCTCTTG) (LTG core: CT, RTG core: AT)”, 0.
With “GAGGCCTCTTGGGTTCTAACCTGTTGCCACC [GAGGCCTCTTG_LTGcore_CT_RTGcore_GG] (site GAGGCCTCTTG) (LTG core: CT, RTG core: GG)”, the “recombinant barcode read abundance (log10)” value was determined as 0.236.
For the sequence “GAGGCCTCTTGGGTTCTAACCTGTTGCCACG [GAGGCCTCTTG_LTGcore_CT_RTGcore_CG] (site GAGGCCTCTTG) (LTG core: CT, RTG core: CG)”, the “recombinant barcode read abundance (log10)” value stood at 0.128.
As to “GAGGCCTCTTGGGTTCTAACCTGTTGCCATT [GAGGCCTCTTG_LTGcore_CT_RTGcore_AA] (site GAGGCCTCTTG) (LTG core: CT, RTG core: AA)”, the “recombinant barcode read abundance (log10)” value is 0.0215.
For the sequence “GAGGCCTTTTGGGTTCTAACCTGTTGCCAAG [GAGGCCTCTTG_LTGcore_TT_RTGcore_CT] (site GAGGCCTCTTG) (LTG core: TT, RTG core: CT)”, the “recombinant barcode read abundance (log10)” value is 0.0682.
Consider “GAGTCCAAGTGGGTTCTAACCTGTTGCGTCT [GAGTCCACTAC_LTGcore_AG_RTGcore_AG] (site GAGTCCACTAC) (LTG core: AG, RTG core: AG)”, for which the “recombinant barcode read abundance (log10)” value amounted to 0.0337.
Consider “GAGTCCACCTGGGTTCTAACCTGTTGCGTAG [GAGTCCACTAC_LTGcore_CC_RTGcore_CT] (site GAGTCCACTAC) (LTG core: CC, RTG core: CT)”, for which the “recombinant barcode read abundance (log10)” value is 0.172.
In the case of “GAGTCCACGTGGGTTCTAACCTGTTGCGTCG [GAGTCCACTAC_LTGcore_CG_RTGcore_CG] (site GAGTCCACTAC) (LTG core: CG, RTG core: CG)” it was 0.405; in that of “GAGTCCACTTGGGTTCTAACCTGTTGCGTCT [GAGTCCACTAC_LTGcore_CT_RTGcore_AG] (site GAGTCCACTAC) (LTG core: CT, RTG core: AG)”, 0; in that of “GAGTCCACTTGGGTTCTAACCTGTTGCGTGT [GAGTCCACTAC_LTGcore_CT_RTGcore_AC] (site GAGTCCACTAC) (LTG core: CT, RTG core: AC)”, 0.0606.
For “GAGTCCACTTGGGTTCTAACCTGTTGCGTTG [GAGTCCACTAC_LTGcore_CT_RTGcore_CA] (site GAGTCCACTAC) (LTG core: CT, RTG core: CA)”, the “recombinant barcode read abundance (log10)” value turned out to be 0.
In the case of “GAGTCCAGATGGGTTCTAACCTGTTGCGTAG [GAGTCCACTAC_LTGcore_GA_RTGcore_CT] (site GAGTCCACTAC) (LTG core: GA, RTG core: CT)” it was 0.294; in that of “GAGTCCAGCTGGGTTCTAACCTGTTGCGTGC [GAGTCCACTAC_LTGcore_GC_RTGcore_GC] (site GAGTCCACTAC) (LTG core: GC, RTG core: GC)”, 0.174; in that of “GAGTCCAGGTGGGTTCTAACCTGTTGCGTCC [GAGTCCACTAC_LTGcore_GG_RTGcore_GG] (site GAGTCCACTAC) (LTG core: GG, RTG core: GG)”, 0.0822.
With “GAGTCCATATGGGTTCTAACCTGTTGCGTTA [GAGTCCACTAC_LTGcore_TA_RTGcore_TA] (site GAGTCCACTAC) (LTG core: TA, RTG core: TA)” the figure was 0.0207; with “GAGTCCATCTGGGTTCTAACCTGTTGCGTAG [GAGTCCACTAC_LTGcore_TC_RTGcore_CT] (site GAGTCCACTAC) (LTG core: TC, RTG core: CT)”, 0.0202; with “GAGTCCATCTGGGTTCTAACCTGTTGCGTGA [GAGTCCACTAC_LTGcore_TC_RTGcore_TC] (site GAGTCCACTAC) (LTG core: TC, RTG core: TC)”, 0.0654.
With “GAGTCCATTTGGGTTCTAACCTGTTGCGTAG [GAGTCCACTAC_LTGcore_TT_RTGcore_CT] (site GAGTCCACTAC) (LTG core: TT, RTG core: CT)”, the “recombinant barcode read abundance (log10)” value was found to be 0.0725.
Consider “GAGTCCTAATGGGTTCTAACCTGTTGCCTAG [GAGTCCTCTAG_LTGcore_AA_RTGcore_CT] (site GAGTCCTCTAG) (LTG core: AA, RTG core: CT)”, for which the “recombinant barcode read abundance (log10)” value amounted to 0.149.
